For data set [1], the system named is PC3. As to the kind of experiment: MTT cytotoxicity, PC3. The format is cell-based. The settings on record: Homo sapiens, PC-3, PC3, Prostatic, 72 hrs, read-out: LC50 (the source's name). The method, then:
(§1) The cytotoxicity of ZTP and ZTQ was analyzed by using human tumor cell lines. Human tumor cell lines were purchased from ATCC and NCI, and cultured in DMEM medium containing 10% FBS at 37° C. in 5% CO2 in an incubator. The cells grown to confluence were used for cytotoxicity analysis. The cells were digested with trypsin, washed with the culture medium, and then counted. 33 tumor cell lines were cultured. The cells were seeded at a density of 3000-6000 cells/well in a 96-well plate and incubated for 16-24 hrs. Then, various concentrations of ZTP or ZTQ dissolved in DMSO were added, and cultured for 72 hrs. The drug-treated cells and control cells were analyzed by MTT.

The test system of data set [2] is A549. Put plainly: MTT cytotoxicity, A549. It is filed as cell-based. As to conditions: Homo sapiens, A549, Lung, 72 hrs, read-out: LC50 (the source's name). The method, then: as §1
Data set [3] is described as follows: MTT cytotoxicity, HUMEC human microvascular endothelial cell. The settings on record: HUMEC human microvascular endothelial cells, read-out: LC50. It is filed as cell-based. On the procedure: [Worded in the source for another cell line; this cell line is reported under the same test.] as §1
The test system of data set [4] is MCF-10a. Put plainly: MTT cytotoxicity, MCF-10a normal mammary epithelial cell. It is filed as cell-based, human. The settings on record: cells still grow well at a concentration up to 30 μm. The method, then: [Worded in the source for another cell line; this cell line is reported under the same test.] as §1
Test in data set [5]: as above
It is filed as cell-based, human. The settings on record: human, MCF-10a normal mammary epithelial cells; MCF-10a, Normal mammary epithelial cell; 72 hrs, MTT; read-out: LC50. The method, then:
[Worded in the source for another cell line; this cell line is reported under the same test.] as §1

For data set [6], the system named is MDA-MB-231. As to the kind of experiment: MTT cytotoxicity, MDA-MB-231. The format is cell-based. The settings on record: Homo sapiens, MDA-MB-231, Breast, 72 hrs, read-out: LC50 (the source's name). On the procedure: as §1
In data set [7] the test system is Caki-1. Put plainly: MTT cytotoxicity, Caki-1. It is filed as cell-based. The settings on record: Homo sapiens, Caki-1, Renal, 72 hrs, read-out: LC50 (the source's name). The method, then:
as §1

Data set [8] relates to Raf protein kinase. As to the kind of experiment: Inhibition of Raf protein kinase activity (phosphorylated MEK, western blotting) in MDA-MB-321 cells. It is filed as cell-based, human. As to conditions: 1 hour treatment, phosphorylated MEK level, read-out: median inhibitory concentration (IC50) for inhibiting the activity of Raf protein kinase. The text has this: Raf is a proto-oncogenic product, and activation of Raf is regulated with stimulation from extracellular cell growth factors. Once activated, Raf can activate MEK through phosphorylation, and further transmits an activation signal to ERK, thereby promoting the growth of tumor cells. In this test, the level of phosphorylated MEK in cells is indicative of the activity of Raf protein kinase in cells. MDA-MB-321 is a human derived breast cancer cell line, which is rich in Raf protein. We used MDA-MB-321 cells to detect whether ZTP and ZTQ can inhibit the activity of Raf protein kinase. MDA-MB-321 cells were subjected to adherent growth in the RPMI 1640 medium (GIBCO-BRL) containing 10% bovine calf serum at 37° C. in 5% CO2. The cells were treated with various concentrations of ZTP and ZTQ (0, 10 ng/ml, 100 ng/ml, 500 ng/ml, 1 μg/ml, and 10 μg/ml), and the cell proteins were collected 1 hour after treatment. The protein content was determined through Bradford method, and then the level of phosphorylated MEK was assayed through western blotting. Immunoblotting experiment: denatured polyacrylamide gel was used for separation of the proteins with a sample load of 60 μg of total proteins. The proteins were electro-transferred onto a PVDF membrane and blocked. […] The membrane was exposed to an X-ray film, and the results were analyzed by a gel imaging system. […]
(In western blotting, separated proteins are transferred to a membrane and probed.)

Data set [9] deals with BT-549. As to the kind of experiment: MTT cytotoxicity, BT-549. The format is cell-based. As to conditions: Homo sapiens, BT-549, Breast, 72 hrs, read-out: LC50 (the source's name). On the procedure:
as §1

The test system of data set [10] is IGROV1. As to the kind of experiment: MTT cytotoxicity, IGROV1. It is filed as cell-based. As to conditions: Homo sapiens, IGROV-1, IGROV1, Ovarian, 72 hrs, read-out: LC50 (the source's name). On the procedure: as §1
Data set [11] relates to HepG3B. As to the kind of experiment: MTT cytotoxicity, HepG3B. It is filed as cell-based. The settings on record: Homo sapiens, Liver, 72 hrs, read-out: LC50 (the source's name). On the procedure: as §1
The subject of data set [12] is human colon cancer cells (HCT-116). Put plainly: Transplantation model of human colon cancer (HCT-116) in nude mice. The settings on record: HCT-116 subcutaneous in nude mice; oral daily 5 days/week, 3 weeks; ZTP 30 mg/kg, ZTQ 60 mg/kg; lower = stronger. It is filed as in vivo, nude mice (nu/nu). The method, then:
T-cell deficient nude mice (nu/nu) of 6 weeks old were purchased from Charles River Laboratory, and housed and treated in a sterile environment following Institutional Animal Care & Use Committee Program. 48 mice were respectively subcutaneously inoculated on ribbed belly with 5×10^6 human liver cancer cells (HepG3B), human lung caner cells (NCI-H23), and human colon cancer cells (HCT-116) suspended in 0.2 ml HBSS/matrigel (50:50, V/V). When the tumor grew to have an average diameter of 7-8 mm and a volume of about 100-200 mm^3, 24 mice were picked up, and assigned to treatment groups (16 animals/2 groups), and a control group (8 animals). The 2 treatment groups were administered with the compounds ZTP and ZTQ dissolved in 15% Captsol respectively at a dose of 30 mg/kg and 60 mg/kg, and the control group only received an excipient (15% Captsol).
The same number of mice of each type was assigned to the control group and the treatment groups with the compounds ZTP and ZTQ respectively.
The dose schedule of the test compounds in the tumor transplanted nude mice was as follows: the compounds ZTP and ZTQ dissolved in 15% Captsol were daily orally administered as a 200 μl solution containing 0.75 mg of ZTP and 1.5 mg of ZTQ for 5 days/week over 3 consecutive weeks, followed by one-week break; and the control group was only administered with 200 μl of the placebo (15% Captsol) for 3 weeks, followed by 1 week of break. The two groups of animals were housed separately, and allowed to free access to food.
Evaluation of antitumor effect: the tumor size was measured every 3 or 4 days. The tumor volume was calculated using the equation below: […], in which a denotes the width (the shorter diameter), and b denotes the length (the longer diameter). Relative tumor volume (RTV) of each tumor refers to the ratio of the volume at a specified time to that at the beginning of the treatment. The average RTV for each treatment group was calculated. The antitumor activity was determined by calculating the tumor growth inhibition using a formula below. […]

A value given as a limit tells only on which side of the number the result lay.

`CNC(=O)c1cc(Sc2ccc(NC(=S)Nc3ccc(Cl)c(C(F)(F)F)c3)cc2)ccn1` [ZTQ, N-[4-chloro-3-(trifluoromethyl)phenyl]-[4-(N-methyl-formamide)(4-pyridylthio)phenyl]-thiourea]: the CC50 in data set [1] was found to be 1.05 µM; in data set [2], 1.01 µM; in data set [6], 1.03 µM; in [7], 0.91 µM; in data set [9], 0.89 µM; in [10], 0.73 µM. In addition, in [11], the CC50 amounted to 1.23 µM. In addition, the CC50 at 72 h in [3] was 0.019 µM; in [5] it was greater than 30 µM. For the same compound, in data set [4], the “susceptibility of normal human mammary epithelial cells (MCF-10a)” value is given as “insusceptible”. In data set [8], the IC50 was 0.02 µM. Besides, the “TGI (T/C×100)” value in data set [12] was found to be 6.45%.

For `CNC(=O)c1cc(Oc2ccc(NC(=S)Nc3ccc(Cl)c(C(F)(F)F)c3)cc2)ccn1` [ZTP, N-[4-chloro-3-(trifluoromethyl)phenyl]-[4-(N-methyl-formamide)(4-pyridyloxy)phenyl]-thiourea], the CC50 was 1.31 µM in data set [1]; 1.22 µM in data set [2]; 1.19 µM in data set [6]; 1.12 µM in data set [7]; 1.09 µM in [9]; 0.92 µM in data set [10]. The CC50 in data set [11] was 1.71 µM. Further, the CC50 at 72 h in [3] is 0.031 µM; in data set [5], greater than 30 µM. Moreover, the “susceptibility of normal human mammary epithelial cells (MCF-10a)” value in data set [4] is “insusceptible”. For the same compound, in [8], the IC50 stood at 0.045 µM. Moreover, the “TGI (T/C×100)” value in data set [12] was 29.2%.
